This passage reports IC50 results from patent US12577247B2 (BUGWORKS RESEARCH, INC., priority 2021, dated 2026).

SMILES strings stand for the structures.

In one experiment the target is T1, A2A receptor (Homo sapiens, UniProt P29274).
T1 construct: host or cells: HEK-293
Kind of experiment: A2aR antagonism IC50, cAMP TR-FRET in HEK-293 cells, high concentration of adenosine (30 μM).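 Note: compounds added 10 min before adenosine, then 30 min stimulation at room temperature in buffer with 100 µM rolipram and 30 µM EHNA, signal read 1 h after detection reagents.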 The class given is cell-based. Conditions: HEK-293 cells expressing A2A receptor; agonist adenosine 30 μM; 2% HSA; inhibition of cAMP; read-out: A2AR IC50 (nM) (@30 μM Adenosine).

Another experiment concerns the target T2, A2B receptor (Homo sapiens, UniProt P29275).
T2 sequence (P29275 1-332): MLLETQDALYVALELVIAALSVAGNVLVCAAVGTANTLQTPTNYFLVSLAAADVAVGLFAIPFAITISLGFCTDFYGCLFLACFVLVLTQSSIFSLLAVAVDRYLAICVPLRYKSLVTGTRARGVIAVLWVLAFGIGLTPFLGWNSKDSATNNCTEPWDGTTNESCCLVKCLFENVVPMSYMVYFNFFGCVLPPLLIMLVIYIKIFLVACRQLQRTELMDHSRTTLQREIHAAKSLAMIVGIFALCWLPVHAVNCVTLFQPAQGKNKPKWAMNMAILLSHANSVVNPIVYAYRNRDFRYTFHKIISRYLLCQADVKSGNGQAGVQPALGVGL
The experiment in a line: A2bR antagonism IC50, cAMP TR-FRET in HEK-293 cells, high concentration of adenosine (30 μM).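 Note: compounds preincubated 10 min with cells, then adenosine stimulation 30 min at room temperature in buffer with Rolipram 100 µM and EHNA 30 µM, TR-FRET read after 1 h.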 The following applies: A2BR IC50 (nM) (@30 μM Adenosine), HEK-293 cells expressing A2B receptor; agonist adenosine 30 μM; 2% HSA; inhibition of cAMP. For orientation: In TR-FRET formats the signal depends on donor and acceptor labels being close together.

T1 sequence (P29274 whole entry): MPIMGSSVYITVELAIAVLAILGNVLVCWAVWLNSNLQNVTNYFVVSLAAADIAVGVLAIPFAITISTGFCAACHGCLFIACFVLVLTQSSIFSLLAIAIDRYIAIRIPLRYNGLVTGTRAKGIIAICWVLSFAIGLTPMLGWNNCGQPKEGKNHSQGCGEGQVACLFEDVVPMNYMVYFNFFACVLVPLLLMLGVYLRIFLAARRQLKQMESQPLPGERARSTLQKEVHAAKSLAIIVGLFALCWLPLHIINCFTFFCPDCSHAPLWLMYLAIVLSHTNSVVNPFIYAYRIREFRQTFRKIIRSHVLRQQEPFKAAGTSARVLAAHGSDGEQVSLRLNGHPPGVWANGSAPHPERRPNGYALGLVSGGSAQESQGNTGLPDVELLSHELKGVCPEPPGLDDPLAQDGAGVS
Protocol for A2B receptor: A Time-Resolved Fluorescence Energy Transfer (TR-FRET) assay was used to show the inhibition of this cAMP production in HEK cells upon treatment with compounds of the Formula I of the present disclosure.
HEK-293 cells expressing A2A receptor (#ES-011-C) or A2B receptor (#ES 013-C) were obtained from PerkinElmer. Cells were maintained in DMEM medium supplemented with 10% FBS and 200 μg/mL of G418 at 37° C. and 5% CO2. The cells were cultured in antibiotic free medium for a period of 16-20 hours prior to the assay. All subsequent steps of the assay are performed at room temperature (22-24° C.). […] About 1500 cells per well were pre-incubated for 10 minutes with the compounds of the present invention before adding the agonist Adenosine at a high concentration (30 μM) for a total stimulation time of 30 minutes. […] The assays were conducted in a stimulation buffer containing 1×DMEM, 5 mM HEPES, 2% Human serum albumin (HSA), 100 μM Rolipram and 30 μM erythro-9-(2-hydroxy-3-nonyl) adenine (EHNA). Serial dilutions of compounds were made in stimulation buffer to achieve a final concentration of high micromolar in a reaction volume of 10 μL. The total reaction volume was 10 μL (5 μL of cells, 2.5 μL of antagonist and 2.5 μL of agonist). […] The stimulation was ended, and the reaction completed by adding 5 μL of 4× Eu-cAMP tracer working solution and 5 μL of 4× ULight-anti-cAMP working solution. The TR FRET signal was measured after 1-hour incubation using a Tecan M1000 or a PerkinElmer Victor Nivo plate reader.

Broadly, the IC50 is the concentration at which inhibition is half-maximal. Regarding `CCc1c(C)nn2c(N)c(C#N)c(NCCc3ccn(C4CCC4CN)n3)nc12` (stereo not drawn) [Example 109, 7-amino-5-((2-(1-(2-(aminomethyl)cyclobutyl)-1H-pyrazol-3-yl)ethyl)amino)-3-ethyl-2-methylpyrazolo[1,5-a]pyrimidine-6-carbonitrile], the IC50 on A2A receptor was 402 nM; at A2B receptor, 723 nM.

Consider `CCc1c(C)nn2c(N)c(C#N)c(NCCc3ccc(F)c(CO)n3)nc12` [Example 91, 7-amino-3-ethyl-5-((2-(5-fluoro-6-(hydroxymethyl)315yridine-2-yl)ethyl)amino)-2-methylpyrazolo[1,5-a]pyrimidine-6-carbonitrile], for which the figures for the IC50 at A2A receptor and at A2B receptor were 628 nM and 1620 nM, respectively.

For `Cc1nn2c(N)c(C#N)c(NCCc3ccn(C4CCCC4CO)n3)nc2c1Cl` (stereo not drawn) [Example 114, 7-amino-3-chloro-5-((2-(1-(2-(hydroxymethyl)cyclopentyl)-1H-pyrazol-3-yl)ethyl)amino)-2-methylpyrazolo[1,5-a]pyrimidine-6-carbonitrile], the IC50 at A2A receptor turned out to be 96 nM; on A2B receptor, 4380 nM.

For `Cc1nn2c(N)c(C#N)c(NCCc3cc(C)n(C4(CO)CC4)n3)nc2c1Cl` [Example 75, 7-amino-3-chloro-5-((2-(1-(1-(hydroxymethyl)cyclopropyl)-5-methyl-1H-pyrazol-3-yl)ethyl)amino)-2-methylpyrazolo[1,5-a]pyrimidine-6-carbonitrile], the IC50 on A2A receptor is 43 nM; at A2B receptor, 7150 nM.

With `CCc1c(C)nn2c(N)c(C#N)c(NCCc3cccn(CC[S+](C)[O-])c3=O)nc12` (single isomer, unassigned; (-)) [Example 144b, (−)7-amino-3-ethyl-2-methyl-5-((2-(1-(2-(methylsulfinyl)ethyl)-2-oxo-1,2-dihydropyridin-3-yl)ethyl)amino) pyrazolo[1,5-a]pyrimidine-6-carbonitrile], the IC50 on A2A receptor amounted to 254 nM; on A2B receptor, 815 nM.

Regarding `Cc1nn2c(N)c(C#N)c(NCCc3ccn(C4(CO)CC4)n3)nc2c1C(F)(F)F` [Example 94, 7-amino-5-((2-(1-(1-(hydroxymethyl)cyclopropyl)-1H-pyrazol-3-yl)ethyl)amino)-2-methyl-3-(trifluoromethyl) pyrazolo[1,5-a]pyrimidine-6-carbonitrile], the IC50 was found to be 104 nM on A2A receptor and 10000 nM on A2B receptor.

In the case of `Cc1nn2c(N)c(C#N)c(NCCc3ccn(C4(CNCCO)CC4)n3)nc2c1Cl` [Example 98, 7-amino-3-chloro-5-((2-(1-(1-(((2-hydroxyethyl)amino)methyl)cyclopropyl)-1H-pyrazol-3-yl)ethyl)amino)-2-methylpyrazolo[1,5-a]pyrimidine-6-carbonitrile], the IC50 on A2A receptor was 100 nM; on A2B receptor, > 15000 nM.

Regarding `CCc1c(C)nn2c(N)c(C#N)c(NCCc3ccn(CCCO)n3)nc12` [Example 111, 7-amino-3-ethyl-5-((2-(1-(3-hydroxypropyl)-1H-pyrazol-3-yl)ethyl)amino)-2-methylpyrazolo[1,5-a]pyrimidine-6-carbonitrile], the IC50 on A2A receptor came out at 666 nM; at A2B receptor, 2380 nM.

In the case of `Cc1nn2c(N)c(C#N)c(NCCc3cc(C)n(C4(CO)CC4)n3)nc2c1Br` [Example 89, 7-amino-3-bromo-5-((2-(1-(1-(hydroxymethyl)cyclopropyl)-5-methyl-1H-pyrazol-3-yl)ethyl)amino)-2-methylpyrazolo[1,5-a]pyrimidine-6-carbonitrile], the IC50 on A2A receptor was found to be 66 nM; at A2B receptor, 2370 nM.

As for `Cc1nn2c(N)c(C#N)c(NCCc3ccn(C4(CO)CC4)n3)nc2c1CC1CCC1` [Example 137, 7-amino-3-(cyclobutylmethyl)-5-((2-(1-(1-(hydroxymethyl)cyclopropyl)-1H-pyrazol-3-yl)ethyl)amino)-2-methylpyrazolo[1,5-a]pyrimidine-6-carbonitrile], the IC50 at A2A receptor is 820 nM; on A2B receptor, > 15000 nM.

As to `CCc1c(C)nn2c(N)c(C#N)c(NCCc3cccn(C)c3=O)nc12` [Example 88, 7-amino-3-ethyl-2-methyl-5-((2-(1-methyl-2-oxo-1,2-dihydropyridin-3-yl)ethyl)amino) pyrazolo[1,5-a]pyrimidine-6-carbonitrile], the values for the IC50 on A2A receptor and on A2B receptor were 286 nM and 1300 nM, respectively.

For `Cc1nn2c(N)c(C#N)c(NCCc3ccn(C4(CCN)CC4)n3)nc2c1Cl` [Example 151, 7-amino-5-((2-(1-(1-(2-aminoethyl)cyclopropyl)-1H-pyrazol-3-yl)ethyl)amino)-3-chloro-2-methylpyrazolo[1,5-a]pyrimidine-6-carbonitrile], the IC50 was determined as 95 nM on A2A receptor and 4610 nM on A2B receptor.

As to `CCCc1c(C)nn2c(N)c(C#N)c(NCCc3ccn(C4(CO)CC4)n3)nc12` [Example 158, 7-amino-5-((2-(1-(1-(hydroxymethyl)cyclopropyl)-1H-pyrazol-3-yl)ethyl)amino)-2-methyl-3-propylpyrazolo[1,5-a]pyrimidine-6-carbonitrile], the figures for the IC50 on A2A receptor and at A2B receptor were 805 nM and 3350 nM, respectively.

As to `CCc1c(C)nn2c(N)c(C#N)c(NCCc3cccc(C(C)O)n3)nc12` (single isomer, unassigned; (-)) [Example 159b, (−)-7-amino-3-ethyl-5-((2-(6-(1-hydroxyethyl)pyridine-2-yl)ethyl)amino)-2-methylpyrazolo[1,5-a]pyrimidine-6-carbonitrile], the IC50 on A2A receptor stood at 457 nM; at A2B receptor, 1020 nM.

Consider `CCc1c(C(F)F)nn2c(N)c(C#N)c(NCCc3cccn(CCO)c3=O)nc12` [Example 131, 7-amino-2-(difluoromethyl)-3-ethyl-5-((2-(1-(2-hydroxyethyl)-2-oxo-1,2-dihydropyridin-3-yl)ethyl)amino) pyrazolo[1,5-a]pyrimidine-6-carbonitrile], for which the figures for the IC50 on A2A receptor and at A2B receptor were 1460 nM and > 15000 nM, respectively.

Regarding `CCc1c(C)nn2c(N)c(C#N)c(NCCc3cc(C)n(C4(CO)CC4)n3)nc12` [Example 76, 7-amino-3-ethyl-5-((2-(1-(1-(hydroxymethyl)cyclopropyl)-5-methyl-1H-pyrazol-3-yl)ethyl)amino)-2-methylpyrazolo[1,5-a]pyrimidine-6-carbonitrile], the values for the IC50 at A2A receptor and on A2B receptor were 50 nM and 1590 nM, respectively.

`CCc1c(C)nn2c(N)c(C#N)c(NCCc3cc(C)n(C4COCC4CO)n3)nc12` (single isomer, unassigned) [Example 167]: the IC50 worked out at 100 nM on A2A receptor and 700 nM on A2B receptor.

As to `Cc1nn2c(N)c(C#N)c(NCCc3ccn(CC4CC(O)C4)n3)nc2c1Cl` (single isomer, unassigned; (-)) [Example 84, (−)-7-amino-3-chloro-5-((2-(1-((3-hydroxycyclobutyl)methyl)-1H-pyrazol-3-yl)ethyl)amino)-2-methylpyrazolo[1,5-a]pyrimidine-6-carbonitrile], the IC50 at A2A receptor came to 102 nM; on A2B receptor, 4250 nM.

Turning to `CCc1c(C(F)F)nn2c(N)c(C#N)c(NCCc3ccn(C4CCC4CO)n3)nc12` (stereo not drawn) [Example 102, 7-amino-2-(difluoromethyl)-3-ethyl-5-((2-(1-(2-(hydroxymethyl)cyclobutyl)-1H-pyrazol-3-yl)ethyl)amino) pyrazolo[1,5-a]pyrimidine-6-carbonitrile], the IC50 stood at 804 nM on A2A receptor and 8300 nM at A2B receptor.

With `CCc1c(C)nn2c(N)c(C#N)c(NCCc3ccn(C4(CN)CC4)n3)nc12` [Example 146, 7-amino-5-((2-(1-(1-(aminomethyl)cyclopropyl)-1H-pyrazol-3-yl)ethyl)amino)-3-ethyl-2-methylpyrazolo[1,5-a]pyrimidine-6-carbonitrile], the results for the IC50 on A2A receptor and at A2B receptor were 255 nM and 2470 nM, respectively.

In the case of `CCc1c(C)nn2c(N)c(C#N)c(NCCc3cccn(CCN)c3=O)nc12` [Example 126, 7-amino-5-((2-(1-(2-aminoethyl)-2-oxo-1,2-dihydropyridin-3-yl)ethyl)amino)-3-ethyl-2-methylpyrazolo[1,5-a] pyrimidine-6-carbonitrile], the IC50 at A2A receptor worked out at 1890 nM; at A2B receptor, 3550 nM.

`CCc1c(C)nn2c(N)c(C#N)c(NCCc3ccn(CCCSC)n3)nc12` [Example 161, 7-amino-3-ethyl-2-methyl-5-((2-(1-(3-(methylthio)propyl)-1H-pyrazol-3-yl)ethyl)amino)pyrazolo[1,5-a]pyrimidine-6-carbonitrile]: the figures for the IC50 on A2A receptor and on A2B receptor were 2770 nM and 3970 nM, respectively.

For `CCc1c(C)nn2c(N)c(C#N)c(NCCc3cccc(CNCCO)n3)nc12` [Example 97, 7-amino-3-ethyl-5-((2-(6-(((2-hydroxyethyl)amino)methyl)pyridine-2-yl)ethyl)amino)-2-methylpyrazolo[1,5-a]pyrimidine-6-carbonitrile], the IC50 on A2A receptor came out at 451 nM; on A2B receptor it was 1430 nM.

Turning to `CCc1c(C)nn2c(N)c(C#N)c(NCCc3ccn(C4(CCO)CC4)n3)nc12` [Example 124, 7-amino-3-ethyl-5-((2-(1-(1-(2-hydroxyethyl)cyclopropyl)-1H-pyrazol-3-yl)ethyl)amino)-2-methylpyrazolo[1,5-a] pyrimidine-6-carbonitrile], the IC50 on A2A receptor was 126 nM; on A2B receptor, 2220 nM.
